Assay results reported in patent US20190010167A1, “INHIBITORS OF THE MENIN-MLL INTERACTION” (Vitae Pharmaceuticals, Inc., priority 2015, published 2019).

Legend:
[1] = biological target: T1, wild-type menin / MLL-AF9 fusion protein (Homo sapiens, UniProt O00255); assay: AlphaLISA menin/MLL binding assay, wild-type menin (Assay 1); details: biotinylated wild-type menin 5 nM, MLL-AF9-FLAG lysate
T1 construct: made in house; host or cells: E. coli (menin); HEK293 cleared lysate (MLL-AF9-FLAG)
T1 sequence (O00255 1-610): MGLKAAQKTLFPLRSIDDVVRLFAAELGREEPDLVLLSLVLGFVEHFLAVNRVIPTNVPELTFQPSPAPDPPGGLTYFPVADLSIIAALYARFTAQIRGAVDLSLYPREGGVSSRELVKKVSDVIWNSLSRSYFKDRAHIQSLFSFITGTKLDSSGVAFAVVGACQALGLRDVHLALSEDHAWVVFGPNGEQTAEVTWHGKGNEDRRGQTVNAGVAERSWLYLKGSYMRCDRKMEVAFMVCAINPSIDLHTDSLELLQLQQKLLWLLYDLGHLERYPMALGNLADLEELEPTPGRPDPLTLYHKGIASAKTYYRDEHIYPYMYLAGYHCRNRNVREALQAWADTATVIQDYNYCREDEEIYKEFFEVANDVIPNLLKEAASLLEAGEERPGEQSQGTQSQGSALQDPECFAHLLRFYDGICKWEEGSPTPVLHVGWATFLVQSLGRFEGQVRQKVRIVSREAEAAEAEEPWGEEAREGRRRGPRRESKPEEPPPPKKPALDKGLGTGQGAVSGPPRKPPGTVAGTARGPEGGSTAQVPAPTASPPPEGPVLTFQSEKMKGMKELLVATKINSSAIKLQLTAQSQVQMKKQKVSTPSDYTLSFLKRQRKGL
Summary of the method: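 Biotinylated wild-type or mutated menin (5 nM, E. coli-expressed) was preincubated 30 min at RT with compound and HEK293 lysate containing MLL1-1,396–AF9 1-92–FLAG. Buffer was 50 mM Tris-HCl pH 7.4, 5% DMSO, 50 mM NaCl, 0.01% BSA, 1 mM DTT. Anti-FLAG acceptor and streptavidin donor beads (10 μg/mL each) were then added for 60 min. IC50 came from a four-parameter fit of the Alpha signal inhibition.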

[2] = biological target: T2, menin/MLL (Gal4-Menin and MLL1-46-VP16) in HEK293 cells (Homo sapiens, UniProt O00255); assay: Mammalian cellular two-hybrid assay in HEK293 cells (Assay 2, cell assay); format: cell-based; details: Gal4-Menin/MLL1-46-VP16 two-hybrid, NanoLuc luciferase reporter, 16-18 h
T2 construct: expressed in transfected cells; host or cells: HEK293 (ATCC)
T2 sequence (P04386 1-147 partner limits assumed, species assumed, one chain of several): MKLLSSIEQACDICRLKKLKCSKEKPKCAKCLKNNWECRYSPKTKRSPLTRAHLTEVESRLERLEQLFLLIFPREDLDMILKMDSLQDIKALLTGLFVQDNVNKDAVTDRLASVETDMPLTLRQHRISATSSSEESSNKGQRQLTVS
Protocol: Potencies of inhibitor compounds against menin/MLL were tested in a mammalian cellular two-hybrid assay system. HEK293 cells (American Type Culture Collection (ATCC); Manassas, Va.) were co-transfected with three plasmids: one encoding Gal4-Menin (200 ng per 10^6 cells), another encoding MLL1-46-VP16 (100 ng per 10^6 cells), and a reporter plasmid pNL3.3-4×UAS (500 ng per 10^6 cells) encoding secreted NanoLuc® luciferase (Promega) with the upstream 4×UAS repeats for Gal4 binding. Transfection was performed in Opti-MEM® media using Lipofectamine® LTX with Plus™ Reagent (ThermoFisher Scientific) according to manufacturer's protocol. Cells were incubated with transfection reagents at 37° C. 5% CO2 for 5-6 h, harvested by trypsinization and centrifugation at 300×g for 5 min and resuspended in Gibco® DMEM media (phenol red-free, no antibiotics) containing 10% delipidated fetal bovine serum (FBS) (ThermoFisher Scientific). Concentration of cells in the media was adjusted to 3.5×10^5 cells/ml, and 100 μl of the cell suspension was dispensed into each well of 96-well Costar™ black clear bottom cell culture plates (Fisher Scientific). Tested compounds were added as 100 μL of 2× solutions in the media. Final concentration of DMSO was 0.1% in all wells. The cells were incubated with tested compounds at 37° C. 5% CO2 for 16-18 h. At the end of the incubation, 40 μL of the conditioned media from each well was transferred into each well of 96-well Costar™ black half-area plates (Fisher Scientific), to which 40 μl of 2× reconstituted NanoGlo® luciferase assay reagent (Promega) was added and thoroughly mixed on a microshaker for 2-3 min. Remaining media in the culture plates was removed by emptying the wells and blotting the plates on filter paper. The cells were lysed with 1× CellTiter-Glo® Luminescent Cell Viability Assay reagent (Promega) for assessing toxicity of the tested compounds. Both, Nano-Glo® and CellTiter-Glo® luminescence intensities were measured on EnVision® multilabel plate reader (PerkinElmer). Percent inhibition values were calculated based on Nano-Glo® luciferase activity observed with the tested compounds vs. DMSO control and commercially available menin inhibitor MI-2-2 (4-(4-(5,5-Dimethyl-4,5-dihydrothiazol-2-yl)piperazin-1-yl)-6-(2,2,2-trifluoroethyl)thieno[2,3-d]pyrimidine) (EMD Millipore, Cat. No. 444825) incubated with cells at 5 μM. These percent inhibition values were regressed against compound concentrations in the assay using non-linear 4-parameter logit curve fitting (XLFit, IDBS). Half maximal inhibitory concentrations (IC50) were calculated as the parameters of the fit corresponding to the inflection points on semi-logarithmic dose-response curves.

SMILES | IC50 [1] | IC50 [2]
FC(F)(F)Cc1cc2c(N3CC4(CN(CC5CCCC5)C4)C3)ncnc2s1 [Example 68, 4-(6-(cyclopentylmethyl)-2,6-diazaspiro[3.3]heptan-2-yl)-6-(2,2,2-trifluoroethyl)thieno[2,3-d]pyrimidine] | < 0.1 µM | 0.1 to 1 µM
FC(F)(F)Cc1cc2c(N3CCC4(CC3)CN(Cc3ccccc3)C4)ncnc2s1 [Example 1, 4-(2-benzyl-2,7-diazaspiro[3.5]nonan-7-yl)-6-(2,2,2-trifluoroethyl) thieno[2,3-d]pyrimidine] | ≥ 1 µM | ≥ 1 µM
CC(=O)Nc1ccc(CN2CCC3(CCN(c4ncnc5sc(CC(F)(F)F)cc45)C3)C2)c(F)c1 (stereo not shown) [Example 45, N-(3-fluoro-4-((7-(6-(2,2,2-trifluoroethyl)thieno[2,3-d]pyrimidin-4-yl)-2,7-diazaspiro[4.4]nonan-2-yl)methyl)phenyl)acetamide] | < 0.1 µM | 0.1 to 1 µM
FC(F)(F)Cc1cc2c(N3CC4(CCN(Cc5ccccc5)CC4)C3)ncnc2s1 [Example 98, 4-(7-benzyl-2,7-diazaspiro[3.5]nonan-2-yl)-6-(2,2,2-trifluoroethyl)thieno[2,3-d]pyrimidine] | 0.1 to 1 µM | 0.1 to 1 µM
CC(=O)Nc1ccc(CN2CCC3(CCN(c4ncnc5sc(CC(F)(F)F)cc45)C3)C2)c(Cl)c1 (stereo not shown) [Example 44, N-(3-chloro-4-((7-(6-(2,2,2-trifluoroethyl)thieno[2,3-d]pyrimidin-4-yl)-2,7-diazaspiro[4.4]nonan-2-yl)methyl)phenyl)acetamide] | < 0.1 µM | 0.1 to 1 µM
CCC(C)CN1CC2(CCN(c3ncnc4sc(CC(F)(F)F)cc34)C2)C1 (stereo not shown) [Example 110, 4-(2-(2-methylbutyl)-2,6-diazaspiro[3.4]octan-6-yl)-6-(2,2,2-trifluoroethyl)thieno[2,3-d]pyrimidine] | 0.1 to 1 µM | 0.1 to 1 µM
CS(=O)(=O)N[C@H]1CC[C@H](CN2CCC3(CCN(c4ncnc5sc(CC(F)(F)F)cc45)C3)C2)CC1 (stereo partly shown) [Example 48, N-((1r,4r)-4-((7-(6-(2,2,2-trifluoroethyl)thieno[2,3-d]pyrimidin-4-yl)-2,7-diazaspiro[4.4]nonan-2-yl)methyl)cyclohexyl)methanesulfonamide] | < 0.1 µM | 0.1 to 1 µM
FC(F)(F)Cc1cc2c(N3CC4(CN(CC5CCCC(F)(F)C5)C4)C3)ncnc2s1 (stereo not shown) [Example 63, 4-(6-((3,3-difluorocyclohexyl)methyl)-2,6-diazaspiro[3.3]heptan-2-yl)-6-(2,2,2-trifluoroethyl)thieno[2,3-d]pyrimidine] | < 0.1 µM | 0.1 to 1 µM
FC(F)(F)Cc1cc2c(N3CCC4(CCN(Cc5ccc6cc[nH]c6c5)C4)C3)ncnc2s1 (stereo not shown) [Example 29, 4-(7-((1H-indol-6-yl)methyl)-2,7-diazaspiro[4.4]nonan-2-yl)-6-(2,2,2-trifluoroethyl)thieno[2,3-d]pyrimidine] | < 0.1 µM | 0.1 to 1 µM
Cc1cc(NS(C)(=O)=O)ccc1CN1CCC2(CCN(c3ncnc4sc(CC(F)(F)F)cc34)C2)C1 (stereo not shown) [Example 54, N-(3-methyl-4-((7-(6-(2,2,2-trifluoroethyl)thieno[2,3-d]pyrimidin-4-yl)-2,7-diazaspiro[4.4]nonan-2-yl)methyl)phenyl)methanesulfonamide] | < 0.1 µM | 0.1 to 1 µM

More lines, now with the values ahead:

IC50 [1] | IC50 [2] | SMILES
0.1 to 1 µM | 0.1 to 1 µM | FC(F)(F)Cc1cc2c(N3CC4(CN(CC5CCOCC5)C4)C3)ncnc2s1 [Example 66, 4-(6-((tetrahydro-2H-pyran-4-yl)methyl)-2,6-diazaspiro[3.3]heptan-2-yl)-6-(2,2,2-trifluoroethyl)thieno[2,3-d]pyrimidine]
< 0.1 µM | ≥ 1 µM | FC(F)(F)Cc1cc2c(N3CC4(CCN(CC5CCOCC5)C4)C3)ncnc2s1 [Example 93, 4-(6-((tetrahydro-2H-pyran-4-yl)methyl)-2,6-diazaspiro[3.4]octan-2-yl)-6-(2,2,2-trifluoroethyl)thieno[2,3-d]pyrimidine]
< 0.1 µM | 0.1 to 1 µM | CC(=O)Nc1ccc(CN2CCC3(CCN(c4ncnc5sc(CC(F)(F)F)cc45)C3)C2)cc1 (stereo not shown) [Example 34, N-(4-((7-(6-(2,2,2-trifluoroethyl)thieno[2,3-d]pyrimidin-4-yl)-2,7-diazaspiro[4.4]nonan-2-yl)methyl)phenyl)acetamide]
< 0.1 µM | 0.1 to 1 µM | CC(=O)Nc1ccc(CN2CCC3(CCN(c4ncnc5sc(CC(F)(F)F)cc45)C3)C2)c(C)c1 (stereo not shown) [Example 42, N-(3-methyl-4-((7-(6-(2,2,2-trifluoroethyl)thieno[2,3-d]pyrimidin-4-yl)-2,7-diazaspiro[4.4]nonan-2-yl)methyl)phenyl)acetamide]
< 0.1 µM | 0.1 to 1 µM | CS(=O)(=O)N[C@H]1CC[C@@H](CN2CCC3(CCN(c4ncnc5sc(CC(F)(F)F)cc45)C3)C2)CC1 (stereo partly shown) [Example 49, N-((1s,4s)-4-((7-(6-(2,2,2-trifluoroethyl)thieno[2,3-d]pyrimidin-4-yl)-2,7-diazaspiro[4.4]nonan-2-yl)methyl)cyclohexyl)methanesulfonamide]
< 0.1 µM | ≥ 1 µM | O=c1[nH]c2ccc(CN3CCC4(CCN(c5ncnc6sc(CC(F)(F)F)cc56)C4)C3)cc2n1CCO (stereo not shown) [Example 120]
0.1 to 1 µM | ≥ 1 µM | FC(F)(F)Cc1cc2c(N3CCC4(CCN(Cc5ccccc5)C4)CC3)ncnc2s1 [Example 23, 4-(2-benzyl-2,8-diazaspiro[4.5]decan-8-yl)-6-(2,2,2-trifluoroethyl)thieno[2,3-d]pyrimidine]
0.1 to 1 µM | 0.1 to 1 µM | COC1CCC(CN2CC3(C2)CN(c2ncnc4sc(CC(F)(F)F)cc24)C3)CC1 (stereo not shown) [Example 75, 4-(6-((4-methoxycyclohexyl)methyl)-2,6-diazaspiro[3.3]heptan-2-yl)-6-(2,2,2-trifluoroethyl)thieno[2,3-d]pyrimidine]
< 0.1 µM | 0.1 to 1 µM | Cc1c(CN2CCC3(CCN(c4ncnc5sc(CC(F)(F)F)cc45)CC3)C2)ccc2[nH]c(C#N)cc12 [Example 26, 4-methyl-5-((8-(6-(2,2,2-trifluoroethyl)thieno[2,3-d]pyrimidin-4-yl)-2,8-diazaspiro[4.5]decan-2-yl)methyl)-1H-indole-2-carbonitrile]
≥ 1 µM |  | CC(C)N1CC2(CCN(c3ncnc4sc(CC(F)(F)F)cc34)CC2)C1 [Example 3, 4-(2-isopropyl-2,7-diazaspiro[3.5]nonan-7-yl)-6-(2,2,2-trifluoroethyl)thieno[2,3-d]pyrimidine]
≥ 1 µM |  | FC(F)(F)Cc1cc2c(N3CCC4(CC3)CN(C3CCOCC3)C4)ncnc2s1 [Example 8, 4-(2-(tetrahydro-2H-pyran-4-yl)-2,7-diazaspiro[3.5]nonan-7-yl)-6-(2,2,2-trifluoroethyl)thieno[2,3-d]pyrimidine]
